The record followed here is publication PMC4988494 (Nature, 2015).

Test [1] has as its target A. niger Fdc^UbiX (A. niger Fdc1) (Aspergillus niger, UniProt A2QHE5). Briefly: UV-Vis and activity, reversible inhibition. In kind it is biochemical. The following applies: prFMN-loaded enzyme.
Test [2] addresses Aspergillus niger Fdc1 (Aspergillus niger) (UniProt A2QHE5). Briefly: native MS.

Turning to `O=CCc1ccccc1` [phenylacetaldehyde], the “UV-Vis and activity, reversible inhibition” value in test [1] is recorded as “incubation with phenylpyruvate or phenylacetaldehyde leads to reversible enzyme inhibition”.

In general, stoichiometry N refers to the number of molecules, sites or subunits per partner or assembly. “Aspergillus niger Fdc1 (from UniProt A2QHE5 1-500) (enzyme)” gave a stoichiometry N in test [2] of 2.
